# Experimental data reported in patent EP4772506A1, “COMPOUND FOR REGULATING ACTIVITY OF MICRORNA-124” (Jiangsu Chia Tai Fenghai Pharmaceutical Co., Ltd., priority 2023, dated 2025).
# Marks after values point to notes of the source that are not given here.
# Columns and labels:
# miR124 = assay: Effect of the compound on miR124 upregulation in PBMCs (qPCR, U6 as internal reference); type: cell-based, human; settings: miR-124 expression, 5 µM, 6 days, batches normalized
# Experimental: The effect of test compounds on miR124 expression levels was evaluated in human peripheral blood mononuclear cells (PBMCs). […] Test compounds (final concentration: 5 µM) were added for treatment at 37°C, 5% CO2 for 6 days, with medium replacement on day 3. The control group was treated with an equal volume of DMSO under the same conditions.
# RNA Extraction: On day 6, cells were collected in a 15 mL centrifuge tube and centrifuged at 400g for 10 min, followed by supernatant removal. […] The upper RNA layer was aspirated into a clean 1.5 mL centrifuge tube (RNase-free), an equal volume of isopropanol was added, and left at room temperature for 10 min to precipitate RNA. Centrifugation at 4°C and 12000g for 10 min yielded a small white pellet at the tube bottom.
# Fluorescent quantitative PCR reaction: miRNA quantification was performed using SYBR Green I intercalating fluorescence method, with simultaneous detection of the housekeeping gene U6 transcript level as internal reference.
# [1] = system: dextran sulfate sodium (DSS)-induced ulcerative colitis; assay: Preventive and therapeutic effects on DSS-induced ulcerative colitis (UC) in mice; type: in vivo, C57BL/6 mice; settings: for relative body weight (% of initial): mean ± SEM; for Relative colon length (%): of the control group
# Experimental: The preventive and therapeutic effects of the positive drug ABX464 and Compound 23 of the present disclosure on dextran sulfate sodium (DSS)-induced ulcerative colitis were evaluated using a DSS-induced ulcerative colitis (UC) model.
# Female C57BL/6 mice (20-22 g) were randomly divided into 7 groups according to body weight after adaptive feeding, as shown in Table 4. On day 1, the mice were switched to 3% DSS feeding. After 10 days of DSS feeding, they were switched back to normal drinking water until day 13. From day 1 to day 13, the mice were continuously administered the corresponding solvents and drugs by gavage. Body weight changes were recorded daily from day 1 to day 13. On day 13, after recording body weight, the mice were dissected to measure colon length. The preventive and therapeutic effects of the test drug on ulcerative colitis in mice were evaluated based on relative body weight change rate and colon length. Table 4. Experimental animal grouping and model induction period
# [2] = Pharmacokinetic study in rats (plasma, LC-MS/MS); settings: rat, in vivo, po, 20 mg/kg
# Experimental: • (1) SD male rats were used as test animals.
# The administration solvent was a physiological saline solution containing 10% DMSO + 10% polyoxyl castor oil (Cremophor EL). Fasting was maintained for approximately 12 hours prior to administration, and free feeding was allowed 4 hours post-administration, with no water restriction. […] After gently inverting the tube to fully mix the anticoagulant EDTA-K2 with the blood, the tube was immediately placed on wet ice. The plasma was separated by centrifugation immediately after blood collection under the following centrifugation conditions: 4°C, 3500 rpm, and 5 min. The upper plasma layer was transferred and stored at -80°C until sample analysis. […] The pharmacokinetic parameters were calculated from the sample analysis results using WinNonlin software.
# [3] = 6.25-50 mg/kg qd by gavage, overall conclusion
# [4] = day 13, 6.25 mg/kg qd by gavage
# [5] = day 13, 12.5 mg/kg qd by gavage
smiles,measurement,setting,value
FC(F)(F)Oc1ccc(Nc2ncc3ccc(Cl)cc3n2)cc1 [Compound 23],"Average fold change compared to DMSO treatment, Average value",miR124,6.54
same,effect on colon shortening in DSS-induced ulcerative colitis mice,[1]; [3],good therapeutic effect on colon shortening
same,effect on weight loss in DSS-induced ulcerative colitis mice,[1]; [3],favorable restorative effect on weight loss
same,weight loss,"[1]; by day 9, 50 mg/kg qd by gavage",3.09%
same,weight loss,"[1]; by day 10, 6.25 mg/kg qd by gavage",7.52%
same,weight loss,"[1]; by day 10, 12.5 mg/kg qd by gavage",8.99%
same,weight loss,"[1]; by day 10, 25 mg/kg qd by gavage",7.96%
same,weight loss,"[1]; by day 10, 50 mg/kg qd by gavage",3.8%
same,relative body weight (% of initial),"[1]; day 1, 6.25 mg/kg qd by gavage",100±0.00%
same,relative body weight (% of initial),"[1]; day 1, 12.5 mg/kg qd by gavage",100±0.00%
same,relative body weight (% of initial),"[1]; day 1, 25 mg/kg qd by gavage",100±0.00%
same,relative body weight (% of initial),"[1]; day 1, 50 mg/kg qd by gavage",100±0.00%
same,relative body weight (% of initial),"[1]; day 2, 6.25 mg/kg qd by gavage",101.5± 0.43%
same,relative body weight (% of initial),"[1]; day 2, 12.5 mg/kg qd by gavage",99.9±0.63%
same,relative body weight (% of initial),"[1]; day 2, 25 mg/kg qd by gavage",100.5± 0.37%
same,relative body weight (% of initial),"[1]; day 2, 50 mg/kg qd by gavage",99.1±0.65%
same,relative body weight (% of initial),"[1]; day 3, 6.25 mg/kg qd by gavage",102.4± 0.78%
same,relative body weight (% of initial),"[1]; day 3, 12.5 mg/kg qd by gavage",100.8± 0.67%
same,relative body weight (% of initial),"[1]; day 3, 25 mg/kg qd by gavage",101.1± 0.59%
same,relative body weight (% of initial),"[1]; day 3, 50 mg/kg qd by gavage",100.2±0.78%
same,relative body weight (% of initial),"[1]; day 4, 6.25 mg/kg qd by gavage",101.9± 1.02%
same,relative body weight (% of initial),"[1]; day 4, 12.5 mg/kg qd by gavage",99.9 ± 0.87%
same,relative body weight (% of initial),"[1]; day 4, 25 mg/kg qd by gavage",100.8± 0.44%
same,relative body weight (% of initial),"[1]; day 4, 50 mg/kg qd by gavage",100.0±0.74%
same,relative body weight (% of initial),"[1]; day 5, 6.25 mg/kg qd by gavage",101.7± 0.98%
same,relative body weight (% of initial),"[1]; day 5, 12.5 mg/kg qd by gavage",100.5± 0.88%
same,relative body weight (% of initial),"[1]; day 5, 25 mg/kg qd by gavage",99.8±0.61%
same,relative body weight (% of initial),"[1]; day 5, 50 mg/kg qd by gavage",100.7±1.01%
same,relative body weight (% of initial),"[1]; day 6, 6.25 mg/kg qd by gavage",100±0.97%
same,relative body weight (% of initial),"[1]; day 6, 12.5 mg/kg qd by gavage",97.4±0.87%
same,relative body weight (% of initial),"[1]; day 6, 25 mg/kg qd by gavage",97.5±0.81%
same,relative body weight (% of initial),"[1]; day 6, 50 mg/kg qd by gavage",98.0±1.15%
same,relative body weight (% of initial),"[1]; day 7, 6.25 mg/kg qd by gavage",96.4±1.18%
same,relative body weight (% of initial),"[1]; day 7, 12.5 mg/kg qd by gavage",95.0±1.12%
same,relative body weight (% of initial),"[1]; day 7, 25 mg/kg qd by gavage",95.3±0.98%
same,relative body weight (% of initial),"[1]; day 7, 50 mg/kg qd by gavage",96.9±1.03%
same,relative body weight (% of initial),"[1]; day 8, 6.25 mg/kg qd by gavage",94.4±1.50%
same,relative body weight (% of initial),"[1]; day 8, 12.5 mg/kg qd by gavage",92.7±1.28%
same,relative body weight (% of initial),"[1]; day 8, 25 mg/kg qd by gavage",93.7±1.43%
same,relative body weight (% of initial),"[1]; day 8, 50 mg/kg qd by gavage",96.7±1.20%
same,relative body weight (% of initial),"[1]; day 9, 6.25 mg/kg qd by gavage",93.4±1.75%
same,relative body weight (% of initial),"[1]; day 9, 12.5 mg/kg qd by gavage",92.7±1.55%
same,relative body weight (% of initial),"[1]; day 9, 25 mg/kg qd by gavage",92.6±2.25%
same,relative body weight (% of initial),"[1]; day 9, 50 mg/kg qd by gavage",96.9± 1.41 %
same,relative body weight (% of initial),"[1]; day 10, 6.25 mg/kg qd by gavage",92.5± 2.02 %
same,relative body weight (% of initial),"[1]; day 10, 12.5 mg/kg qd by gavage",91.0± 1.78 %
same,relative body weight (% of initial),"[1]; day 10, 25 mg/kg qd by gavage",92.0± 2.38 %
same,relative body weight (% of initial),"[1]; day 10, 50 mg/kg qd by gavage",96.2± 1.38 %
same,relative body weight (% of initial),"[1]; day 11, 6.25 mg/kg qd by gavage",92.4±2.22%
same,relative body weight (% of initial),"[1]; day 11, 12.5 mg/kg qd by gavage",91.9±1.91%
same,relative body weight (% of initial),"[1]; day 11, 25 mg/kg qd by gavage",94.6± 1.73 %
same,relative body weight (% of initial),"[1]; day 11, 50 mg/kg qd by gavage",96.6± 1.45 %
same,relative body weight (% of initial),"[1]; day 12, 6.25 mg/kg qd by gavage",92.7±2.19%
same,relative body weight (% of initial),"[1]; day 12, 12.5 mg/kg qd by gavage",92.1±1.17%
same,relative body weight (% of initial),"[1]; day 12, 25 mg/kg qd by gavage",93.5±1.57%
same,relative body weight (% of initial),"[1]; day 12, 50 mg/kg qd by gavage",96.5± 1.62 %
same,Colon length Mean,[1]; [4],7.18 cm
same,relative body weight (% of initial),[1]; [4],92.0±2.52%
same,Colon length Mean,[1]; [5],7.85 cm
same,relative body weight (% of initial),[1]; [5],92.1±1.17%
same,Colon length Mean,"[1]; day 13, 25 mg/kg qd by gavage",7.28 cm
same,relative body weight (% of initial),"[1]; day 13, 25 mg/kg qd by gavage",95.3±1.63%
same,Colon length Mean,"[1]; day 13, 50 mg/kg qd by gavage",8.27 cm
same,relative body weight (% of initial),"[1]; day 13, 50 mg/kg qd by gavage",96.5± 1.62 %
same,Relative colon length (%),"[1]; day 13, 6.25 mg/kg qd by gavage, 6.25 mg/kg",89.8### %
same,Relative colon length (%),"[1]; day 13, 6.25 mg/kg qd by gavage, listed as compound 23, 6.25 mg/kg",89.79%
same,Relative colon length (%),"[1]; day 13, 12.5 mg/kg qd by gavage, 12.5 mg/kg",98.1#### %
same,Relative colon length (%),"[1]; day 13, 12.5 mg/kg qd by gavage, listed as compound 23, 12.5 mg/kg",98.1%
same,Relative colon length (%),"[1]; day 13, 25 mg/kg qd by gavage, 25 mg/kg",90.9#### %
same,Relative colon length (%),"[1]; day 13, 25 mg/kg qd by gavage, listed as compound 23, 25 mg/kg",90.9%
same,Relative colon length (%),"[1]; day 13, 50 mg/kg qd by gavage, 50 mg/kg",103.4#### %
same,Relative colon length (%),"[1]; day 13, 50 mg/kg qd by gavage, listed as compound 23, 50 mg/kg",103.3%
same,AUC(0-t),[2],5060 ng·h/mL
same,Cmax,[2],1850 ng/mL
same,MRT inf,[2],2.2 h
same,Tmax,[2],2 h
same,half-life,[2],2.65 h
